Earlier results, collected in patent US8481599B2, “Compositions and methods for increasing compliance with therapies using aldehyde dehydrogenase inhibitors and treating alcoholism” (Tonix Pharmaceuticals Inc., priority 2001, dated 2013).
Like-named read-outs stand apart in the source and are kept apart here.

Assays:
[1] = target: T1, ALDH-I (Homo sapiens, UniProt P05091)
T1 sequence (P05091 18-517): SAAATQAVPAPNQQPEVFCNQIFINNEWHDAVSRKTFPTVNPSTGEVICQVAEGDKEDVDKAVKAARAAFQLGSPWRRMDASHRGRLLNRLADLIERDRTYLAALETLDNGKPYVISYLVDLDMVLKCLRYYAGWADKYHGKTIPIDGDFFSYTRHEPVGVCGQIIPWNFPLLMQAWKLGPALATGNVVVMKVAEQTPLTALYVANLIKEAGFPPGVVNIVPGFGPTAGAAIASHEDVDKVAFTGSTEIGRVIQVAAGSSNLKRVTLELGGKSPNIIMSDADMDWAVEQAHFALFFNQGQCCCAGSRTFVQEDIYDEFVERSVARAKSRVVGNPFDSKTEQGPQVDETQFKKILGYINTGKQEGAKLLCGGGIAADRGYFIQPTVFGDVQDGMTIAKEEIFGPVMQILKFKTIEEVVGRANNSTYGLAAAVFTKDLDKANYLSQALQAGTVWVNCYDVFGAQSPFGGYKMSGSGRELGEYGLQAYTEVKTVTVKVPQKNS

[2] = target: T2, ALDH-II (Homo sapiens, UniProt P00352); conditions: in vitro
T2 sequence (P00352 1-501): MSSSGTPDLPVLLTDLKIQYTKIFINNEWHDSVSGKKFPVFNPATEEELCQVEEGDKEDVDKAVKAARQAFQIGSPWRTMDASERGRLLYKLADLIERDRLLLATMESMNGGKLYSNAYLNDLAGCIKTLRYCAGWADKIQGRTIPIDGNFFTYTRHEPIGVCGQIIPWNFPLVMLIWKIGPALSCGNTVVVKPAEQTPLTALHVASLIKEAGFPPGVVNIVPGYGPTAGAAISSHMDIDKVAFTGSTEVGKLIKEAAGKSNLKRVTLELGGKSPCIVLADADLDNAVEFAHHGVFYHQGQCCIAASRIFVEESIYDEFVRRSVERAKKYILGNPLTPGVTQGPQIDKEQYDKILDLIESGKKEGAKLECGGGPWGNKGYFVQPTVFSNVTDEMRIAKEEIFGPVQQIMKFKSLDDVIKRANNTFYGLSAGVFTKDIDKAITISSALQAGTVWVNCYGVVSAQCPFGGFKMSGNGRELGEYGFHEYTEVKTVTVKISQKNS

[3] = rat studies
[4] = test system: ALDH; conditions: rat studies

In the case of N#CN [cyanamide], the “inhibition of ALDH-I” value ([1]; in vitro) is given as “unable to inhibit” and the “inhibition of ALDH-II” value [2] is given as “unable to inhibit”.
For O=c1c(-c2ccc(O)cc2)coc2cc(O[C@@H]3O[C@H](CO)[C@@H](O)[C@H](O)[C@H]3O)ccc12 [Daidzin], the “inhibition of ALDH-I” value [1] is listed as “selective potent reversible inhibitor”.
In the case of “N5-(hydroxycyclopropyl)-L-glutamine [coprine]”, the “suppression of ethanol consumption” value [3] is given as “effectively suppressed ethanol consumption” and the “potency as ALDH inhibitor relative to disulfiram” value [4] is given as “more potent inhibitor of ALDH as compared to disulfiram”.
